The values that follow come from patent US10239871B2, “Compounds and methods for regulating integrins” (ADHAERE PHARMACEUTICALS, INC., priority 2012, dated 2019).

The subject of data set [1] is Human macrophages. Put plainly: TNF-α release from human macrophages. It is filed as cell-based.
Data set [2] deals with T-cell proliferation. Nature of the data set: Mixed lymphocyte reaction (MLR). Type of data set: cell-based.
The subject of data set [3] is Syk. Put plainly: Western blot analysis of Syk phosphorylation in leukocytes. Type of data set: cell-based. As to conditions: leukocytes incubated 0-60 minutes. The text has this:
TLR4-mediated signaling requires participation of the adaptor protein MyD88 (43) and MyD88−/− mice are protected from kidney damage following IRI. TLR4 activation leads to the binding and stabilization of adaptor protein MyD88, which recruits downstream kinases to initiate Nf-kB-mediated pro-inflammatory signaling. Subsequently, TLR4 signaling induces a negative feedback loop by endogenous activation of CD11b/CD18, which activates Syk to phosphorylate MyD88, tagging it for ubiquitin-mediated destruction. […] A pilot experiment was carried out to validate this hypothesis by determining the levels of MyD88 in human monocytic THP-1 cells. […] This supports the statements that leukadherins mediated priming of integrins for activation negatively regulates intracellular signaling, including the inflammatory NF-kB signaling.
(In western blotting, separated proteins are transferred to a membrane and probed.)

Data set [4] is described as follows: Solubility of LA1 in oral vehicle formulations and simulated biological fluids (LC-MS). It is filed as physicochemical. How it is done:
Pilot oral vehicle evaluation. […] Subsequently, re-dispersability of LA1 was tested using two simulated biological fluids—simulated gastric fluid (SGF) and Fasted State Simulated […] Fluid (FaSSIF).

Data set [5] addresses CD11b/CD18 (Homo sapiens, UniProt P11215). Put plainly: Immunofluorescence microscopy of CD11b/CD18 clustering on K562 WT cells. It is filed as cell-based. More on the design: K562 cells stably transfected with plasmid encoding wild-type integrin CD11b/CD18; expressed in transfected cells. As for the experimental part: To visualize changes upon ligand binding, fibrinogen (50 μg/mL) was also added to the cell suspension media in a second set of incubations. The cells were fixed in suspension and incubated with mAb 184, which is specific for CD11b/CD18, followed by Alexa Fluor 488-conjugated goat antibody against mouse Ig (Sigma). Fluorescence images were recorded with a Leica DMI16000 deconvolution microscope using an HCX APO 40×/0.75 DRY objective with a DCF360FX camera and with Leica LAS-AF software. A 3-dimensional representation of CD11b/CD18 fluorescence intensity and the analysis of the number of CD11b/CD18 clusters per cell was performed using ImageJ software as described. Clustering determination was carried out by counting individual fluorescent peaks that were projected from the basal to the apical side of the cell and were at least 50% above the base line levels. The images presented are representative of at least 20 cells analyzed for each condition from at least three independent experiments.
Therefore, to investigate, a combination of confocal microscopy (to study clustering) and western blotting assays (to study intracellular signaling) using K562 WT cells were used. First, CD11b/CD18 cell-surface distribution and macro clustering was studied under various conditions using confocal microscopy. K562 WT cells in suspension were incubated with various agonists, fixed with paraformaldehyde and the surface expressed CD11b/CD18 was fluorescently stained with anti-CD11b/CD18 mAb 1B4. […] The fluorescence images shown are representative of three independent experiments. […] Also shown below each image is a 3D representation of CD11b fluorescence intensity for selected cells, analyzed in ImageJ In FIG. 5B, data shown are mean±SEM from >40 cells per condition and from >3 independent experiments for each condition. ***p<0.0001, ns=not significant.

The test system of data set [6] is RAW 264.7 macrophage cells. Nature of the data set: Wound healing assay (macrophage migration). Type of data set: cell-based, murine. As to conditions: LA1 15 μM, M18/2 20 μg/mL, 48 hours.
Procedure: Murine RAW 264.7 macrophage cells were grown in DMEM 10% FBS medium in T75 flasks to 70% confluence. The cells were detached by trypsin treatment for 10 minutes at 37° C. and evenly reseeded in 24 well plates and allowed to attain >70% confluency. A scratch was introduced horizontally across the well using 200 µL tip applying even force throughout the etching and holding the tip at approximately an 80 degree angle. The wells were subsequently washed and fresh medium containing various treatment groups was introduced. The wound was imaged using 10× objective. The cells were allowed to grow for 48 hours and the wound was reimaged at the same field after 48 hours. The average extent of wound closure was evaluated by measuring the width of the wound. The area healed was analyzed using ImageJ software and is expressed as percentage healing after 48 hours.
For FIG. 4B, RAW 264.7 cells were plated in 24-well tissue culture plates (2×10^6 cells/well) and allowed to adhere in complete media for 12 hours. […] Images of the cells in culture were obtained immediately prior to (0 hours) and after the completion of the experiment (48 hours) using an inverted phase contrast microscope attached to a video camera.
Representative data shown here are from a triplicate well experiment from one of at least two to three independent experiments. **p<0.001, ***p<0.0001.
In data set [7] the test system is MyD88. Put plainly: MyD88 levels in THP-1 cells. It is filed as cell-based, human. From the text:
TLR4-mediated signaling requires participation of the adaptor protein MyD88 (43) and MyD88−/− mice are protected from kidney damage following IRI. TLR4 activation leads to the binding and stabilization of adaptor protein MyD88, which recruits downstream kinases to initiate Nf-kB-mediated pro-inflammatory signaling. Subsequently, TLR4 signaling induces a negative feedback loop by endogenous activation of CD11b/CD18, which activates Syk to phosphorylate MyD88, tagging it for ubiquitin-mediated destruction. […] A pilot experiment was carried out to validate this hypothesis by determining the levels of MyD88 in human monocytic THP-1 cells.

Data set [8] deals with neutrophil chemotaxis. As to conditions: previously shown [55]; cited from earlier work.
In data set [9] the test system is Cl66 cells. Put plainly: Orthotopic Cl66 mammary adenocarcinoma tumor growth, with or without Taxol. It is filed as in vivo. As to conditions: BALB/c mice. As for the experimental part:
The syngeneic murine mammary adenocarcinoma cell line Cl66 (moderately metastatic and is related to the highly metastatic 4T1 cell line) was orthotopically introduced in Balb/c animals, by injecting ˜5×10^5 Cl66 cells under the left mammary fat pad of WT BALB/c mice (approx. 8-10 weeks old). The tumor size was measured using calipers every other day until the end of the experiment (approx. 5 weeks). 7-days post implantation, the tumors in all animals became palpable, with an average size of ˜100 mm3. At that time, animals in each group were treated as described. LA1 was administered daily for the first two weeks and then every other day until the end of the experiment. Animals in Group 1 received Saline injections, as control. […] It can also enhance the efficacy of traditional chemotherapy in various cancers, including breast cancer, to produce a synergistic response to the treatment. It can also reduce the incidence and the size of metastases.

The test system of data set [10] is neutrophils, hepatocytes, hERG. Nature of the data set: Pilot in vitro ADME assay (neutrophils, hepatocytes, hERG). As to conditions: at up to 100 µM. A general note: hERG is a cardiac potassium channel; its block is linked to QT prolongation.

“Also recorded” adds a separate entry of the source.

`O=C(O)c1ccc(-c2ccc(/C=C3\SC(=S)N(Cc4ccccc4)C3=O)o2)cc1` [LA1]: the cellular morphology result in [1] (LA1 alone) is reported as “no effect on cellular morphology”. Further, the “TNF-α release from stimulated macrophages” value in data set [1] (dsRNA antigen (R848) plus LA1, lupus patients and healthy volunteers) is “significantly reduced the TNF-α release; also recorded: significantly impaired”. In addition, the “TNF-α induction by LA1 alone” value in data set [1] (over 24 hrs) is “did not induce TNF-α”. Moreover, the T-cell proliferation entry in data set [2] is listed as “dose-dependently reduces T-cell proliferation”. For the same compound, the “Syk phosphorylation (pSyk)” value in [3] was “induction of Syk phosphorylation; also recorded: induces Syk phosphorylation”. Also, the “solubility in vehicle formulation” value in [4] (10% Tween80, 20% ETPGS and 30% Captisol, 10 mg/mL slurry, Mg-salt) is 3 to 4 mg/mL. Also, the “solubility on re-dispersion in simulated biological fluids” value in data set [4] (SGF and FaSSIF, 10% Tween80 formulation) is around 0.15 mg/mL. In addition, the “CD11b/CD18 macro clustering on cell surface” value in [5] (absence of ligand fibrinogen, 45 minutes at 37° C.) was “did not induce any significant CD11b/CD18 macro clustering”; in [5] (presence of fibrinogen 50 μg/mL), “did so in the presence of fibrinogen”. In data set [6], the “migration of LPS- or PMA-stimulated macrophages” value is “significantly, and to a similar extent, reduced the migration”. For the same compound, the “migration of macrophages into the wound area, agonist alone” value in data set [6] (vs DMSO) was “no significant increase in the migration of macrophages”. Besides, the “time to complete degradation of MyD88” value in data set [7] (LA1 alone, absence of LPS) was “less than 2 hours”. Moreover, the MyD88 degradation result in data set [7] (co-treatment with LPS, THP-1 cells) is recorded as “much faster degradation of MyD88”. In data set [8], the neutrophil chemotaxis result was “impairs neutrophil chemotaxis”. Further, the “rate of tumor growth, co-treatment with Taxol” value in data set [9] is given as “highest reduction in the rate of tumor growth”. Moreover, the “rate of tumor growth, single agent” value in data set [9] (vs vehicle) was “significant reduction in the rate of tumor growth”. Moreover, the “adverse findings in pilot in vitro ADME assay” value in data set [10] is “no adverse findings”.
